pIC50: −log10 of the molar value.

Usually pIC50 stands for the IC50 on a negative log10 scale, so that one unit is a factor of ten. The low end stands for a high IC50, the high end for a low IC50.

Format in all cases: cell-based
Experiment [1] relates to KRAS^G12D mutant tumor cell line AsPC-1. Put plainly: Antiproliferative effects of compounds in tumor cell line AsPC-1 (CellTiter-Glo 3D). The following applies: Homo sapiens, ASPC1, Experimental Example 1, 7,000 cells per well, ULA plate, 120 h incubation. On the procedure: The experiment studies the antiproliferative effects of compounds by detecting the effects of the compounds on in vitro cell activity of the KRAS^G12D mutant tumor cell line AsPC-1.
The cell line was AsPC-1. The tumor type was pancreatic cancer. The cell line was cultured by adherent growth using RPMI 1640+10% FBS. • Ultra Low Cluster-96-well plate (Corning-7007) • Greiner CELLSTAR 96-well plate (#655090) • Promega CellTiter-Glo 3D luminescence cell activity assay kit (Promega-G9683) • 2104-10 EnVision reader, PerkinElmer • RPMI 1640, DMEM, PBS (phosphate buffer), FBS (fetal bovine serum), Antibiotic-antimycotic, L-glutamine, and DMSO (dimethyl sulfoxide)
The tumor cell line was incubated in an incubator at 37° C., 5% CO2 under the culture conditions shown by the culture method. Regular passage was conducted, and the cells in the logarithmic growth phase were taken for seeding.
The cell line was AsPC-1, with a density of 7,000 cells (per well).
A cell suspension is added at a density of 135 μL per well to a ULA culture plate, and the same volume of cell-free medium is added to a blank control plate.
The ULA culture plate was centrifuged at room temperature for 10 min at 1,000 rpm immediately after seeding. Caution: Always handle follow-up actions with care after centrifuging to avoid unnecessary shaking. […]
The luminous signals were detected on a 2104 EnVision reader. […]

Experiment [2] relates to KRAS^G12V mutant H727 cells. Put plainly: H727 cell proliferation assay (3D-CTG method). To be noted: Homo sapiens, NCI-H727, 168 h, 2,000 cells per well, 7 days incubation. On the procedure:
H727 cells from ATCC; RPMI-1640 medium from ATCC; fetal bovine serum from Ausgenex; CellTiter-Glo® 3D assay kit (3D-CTG) from Promega; and CellCarrier-96 Spheroid ULA/CS from PE.
5) The aforementioned cells were seeded in a transparent 96-well cell culture plate, at a density of 195 μL of cell suspension per well containing 2,000 cells.
6) The compound to be tested was diluted with 100% DMSO to 10 mM as the 1st concentration and then diluted 5 times by a pipette to the 8th concentration, i.e. from 10 mM to 0.13 μM. 2 μL of the gradient-diluted compound was added to 48 μL of cell medium for secondary dilution. After mixed, 5 μL of the secondary-diluted compound was added to the corresponding wells of the cell plate containing 195 μL of cells. […]
7) After incubation, 100 μL of cell supernatant was discarded and 3D-CTG was added at a density of 60 μL per well. […] 8) 100 μL of supernatant was pipetted from the well plate and transferred to a 96-well black plate with a clear bottom, and the luminescence was read in the BMG.
The original data was converted into the inhibition rate using equation Inhibition %=(Ave_H−Sample)/(Ave_H−Ave_L), and the IC50 value was obtained by curve fitting through four parameters (log(inhibitor) vs. response—Variable slope mode in GraphPad Prism). • H well: Reading of DMSO well • L well: Reading of Medium 5. […]

Experiment [3] concerns KRAS^G12D mutant AsPC-1 cells. In words: AsPC-1 cell proliferation assay (3D-CTG method). The following applies: Homo sapiens, ASPC1, 168 h, Experimental Example 2, 2,000 cells per well, 7 days incubation.
Experimental: 1) ASPC-1 cells were seeded in a transparent 96-well cell culture plate, at a density of 195 μL of cell suspension per well containing 2,000 cells.
2) The compound to be tested was diluted with 100% DMSO to 10 mM as the 1st concentration and then diluted 5 times by a pipette to the 8th concentration, i.e. from 10 mM to 0.13 M. 2 μL of the gradient-diluted compound was added to 48 μL of cell medium for secondary dilution. After mixed, 5 μL of the secondary-diluted compound was added to the corresponding wells of the cell plate containing 195 μL of cells. The cell plate was put into a carbon dioxide incubator and incubated for 7 days.
3) After incubation, 100 μL of cell supernatant was discarded and 3D-CTG was added at a density of 60 μL per well. The cells were shaken and incubated at room temperature and 200 rpm for 20 min, and incubated in an incubator at room temperature for 1 h.
4) 100 μL of supernatant was pipetted from the well plate and transferred to a 96-well black plate with a clear bottom, and the luminescence was read in the BMG.
The original data was converted into the inhibition rate using equation Inhibition %=(Ave_H−Sample)/(Ave_H−Ave_L), and the IC50 value was obtained by curve fitting through four parameters (log(inhibitor) vs. response—Variable slope mode in GraphPad Prism). • H well: Reading of DM well • L well: Reading of Medium 5.
The test system of experiment [4] is SW620 (KRAS G12V mutant) cell line. In words: SW620 cell in vitro proliferation assay. The following applies: Homo sapiens, SW-620, 240 h, 1,000 cells per well, 10 days incubation, 3D CellTiter-Glo. The procedure: RPMI1640 medium, penicillin/streptomycin antibiotics from Gibco, and fetal bovine serum from Hyclone. 3D CellTiter-Glo (cell viability chemiluminescent assay) reagent from Promega. SW620 (KRAS G12V mutant) cell line from ATCC, Envision Multilabel analyzer (PerkinElmer).
The cells were seeded in a 96-well, ultra-low adsorption U-plate, at a density of 80 μL of cell suspension per well containing 1,000 cells. The cell plate was incubated overnight in a carbon dioxide incubator.
The compound to be tested was diluted using a multi-channel pipette by 5 times for 8 concentrations, that was, from 2 mM to 25.6 nM, and double replicates were set up. 78 μL of medium was added to an intermediate plate. Then the gradient-diluted compound was transferred to the intermediate plate at a density of 2 μL per well according to the corresponding position, mixed and transferred at a density of 20 μL per well to a cell plate. […] Another cell plate was prepared, and the signal value read on the day of addition was taken as the maximum value (the Max value in the equation below) to be used in data analysis.
A cell viability chemiluminescent assay reagent was added to the cell plate at a density of 100 μL per well and incubated at room temperature for 30 min to stabilize luminous signals. The readings are taken using a multilabel analyzer. […]
On the technique in general: In ATP-based viability assays light output follows the ATP content of the culture.

For the compound `C=C1CN2CCC[C@]2(COc2nc3c(c(N4CCCn5nc(C(=O)N(C)C)cc5C4)n2)CO[C@@H](c2c(F)c(N)cc(C#CC)c2C(F)(F)F)C3)C1` (single isomer, unassigned) [Compound 5A], the pIC50 is 8.21 in experiment [1], 7.34 in experiment [2], 7.93 in experiment [3] and 7.56 in experiment [4].

The values are drawn from patent publication US12552813B2, “Heterocyclic substituted pyrimidopyran compound and use thereof” (Medshine Discovery Inc., priority 2023, dated 2026).
